According to patent US11103525B2, “Idoxuridine and its analogs as neuroprotectans for the treatment of parkinsonism” (priority 2017, dated 2021):

Assays:
GPR37-tGFP = GPR37-tGFP translocation assay; format: cell-based, mouse; conditions: for effect in GPR37-translocation assay (hit rating): tested at 2, 10 and 20 μM
Procedure: FIG. 2. Schematic representation of the rationale and the basic steps of GPR37-translocation assay. A. GPR37 is prone to misfolding and aggregation, which, in metabolically-active cells, are followed by degradation and results in low levels of functional receptor in the plasma membrane. The primary targets of the screening assay are compounds that can directly or indirectly facilitate maturation and trafficking of GPR37 to the plasma membrane. B. N2a cells stably expressing GPR37-tGFP are seeded in poly-D-Lysine coated 384 well plates at density 5000 cells/well. 24 h later cells are treated with compounds, including positive and negative controls, and incubated for 72 h. Then cells are fixed with 4% PFA and additionally stained with Hoechst 33342 (nuclei) and HCS CellMask™ red (cell body) to enable segmentation of the plasma membrane. Acquisition of fluorescence images is done using ImageXpress high content screening system (Molecular Devices). Quantification of GPR37-tGFP levels in the plasma membrane is done using CellProfiler software. FIG. 3. Schematic representation of Image analysis pipeline and final outcome data. Segmentation of the plasma membrane is performed in five main steps: 1) identification of nuclei (primary objects) using nuclear stain, 2) determination of cell borders using primary objects as seeds and growing these objects in respect of tGFP and HCS CellMask™ fluorescence intensity (secondary objects), 3) shrinking and expending secondary objects, 4) subtraction of shrunken cells from expended cells which results in membrane segmentation (tertiary objects), 5) tGFP fluorescence intensity is calculated within tertiary objects. Z′ factor is a quality measure of an assay which describes how well separated positive and negative controls are. Assays having Z′ factors above 0.5 are considered good assays. N2a cells stably expressing GPR37-tGFP were seeded in 384 BDFalcon BioCoat Poly-D-Lysine coated plates at a density of 5000 cells/well, and 50 μL incubation volume of maintenance medium. Cells were incubated at 37° C., 5% CO2 using humidity chamber. 24 h later, the cells were treated with 10 μL of compounds of desired concentration, including positive (2 mM dibutyryl-cAMP+0.5 mM 4-phenylbutyrate) and negative controls (0.1% DMSO), and incubated for 72 h. Cells were fixed with 4% PFA by adding 20 μL of 16% PFA directly to cell medium, incubating for 20 min and washing with PBS-Tween20 (0.05%). Directly after fixation cells were stained for nuclei with Hoechst 33342 (0.01 mg/mL) and for cell bodies with HCS CellMask™ Red stain (Thermo Fisher Scientific Inc.) (0.001 mg/mL) by incubating with the dyes for 30 min in PBS-Tween20 (0.05%) followed by washing with PBS. All the additional steps, including cell seeding were performed using Multidrop Combi dispenser (Thermo Scientific) and washing steps were done by means of HydroSpeed™ plate washer (Tecan). The images were captured using ImageXpress Micro XLS Widefield High-Content Analysis System (Molecular Devices, LLC) in 3 fluorescent channels (ImageXpress filters are listed, followed by excitation/emission in nm): DAPI (387/447), FITC (482/536) and TexasRed (562/624). Binning 2 was applied during the acquisition and digital confocal option was used for FITC and TexasRed filters. Typically, 5 images were taken per well at magnification 20× and stored as 16 bit, gray scale tif files along with metadata in Oracle database, for further analysis. Quantification of GPR37-tGFP levels in the plasma membrane was done using CellProfiler™ software. CellProfiler™ is an open-source cell image analysis software available at www.cellprofiler.org. An image analysis pipeline used for membrane segmentation consisted of 5 main steps (FIG. 3): 1) segmentation of nuclei (primary objects); 2) segmentation of cell bodies (secondary objects); 3) shrinking and expending cell bodies; 4) subtraction of shrank cells from expanded cells (tertiary objects—membranes); 5) calculating tGFP fluorescence in the membranes. […]

hepatic aldehyde oxidase = molecular target: T1, hepatic aldehyde oxidase (Homo sapiens, UniProt Q06278); conditions: cited from earlier work
T1 sequence (Q06278 1-1338): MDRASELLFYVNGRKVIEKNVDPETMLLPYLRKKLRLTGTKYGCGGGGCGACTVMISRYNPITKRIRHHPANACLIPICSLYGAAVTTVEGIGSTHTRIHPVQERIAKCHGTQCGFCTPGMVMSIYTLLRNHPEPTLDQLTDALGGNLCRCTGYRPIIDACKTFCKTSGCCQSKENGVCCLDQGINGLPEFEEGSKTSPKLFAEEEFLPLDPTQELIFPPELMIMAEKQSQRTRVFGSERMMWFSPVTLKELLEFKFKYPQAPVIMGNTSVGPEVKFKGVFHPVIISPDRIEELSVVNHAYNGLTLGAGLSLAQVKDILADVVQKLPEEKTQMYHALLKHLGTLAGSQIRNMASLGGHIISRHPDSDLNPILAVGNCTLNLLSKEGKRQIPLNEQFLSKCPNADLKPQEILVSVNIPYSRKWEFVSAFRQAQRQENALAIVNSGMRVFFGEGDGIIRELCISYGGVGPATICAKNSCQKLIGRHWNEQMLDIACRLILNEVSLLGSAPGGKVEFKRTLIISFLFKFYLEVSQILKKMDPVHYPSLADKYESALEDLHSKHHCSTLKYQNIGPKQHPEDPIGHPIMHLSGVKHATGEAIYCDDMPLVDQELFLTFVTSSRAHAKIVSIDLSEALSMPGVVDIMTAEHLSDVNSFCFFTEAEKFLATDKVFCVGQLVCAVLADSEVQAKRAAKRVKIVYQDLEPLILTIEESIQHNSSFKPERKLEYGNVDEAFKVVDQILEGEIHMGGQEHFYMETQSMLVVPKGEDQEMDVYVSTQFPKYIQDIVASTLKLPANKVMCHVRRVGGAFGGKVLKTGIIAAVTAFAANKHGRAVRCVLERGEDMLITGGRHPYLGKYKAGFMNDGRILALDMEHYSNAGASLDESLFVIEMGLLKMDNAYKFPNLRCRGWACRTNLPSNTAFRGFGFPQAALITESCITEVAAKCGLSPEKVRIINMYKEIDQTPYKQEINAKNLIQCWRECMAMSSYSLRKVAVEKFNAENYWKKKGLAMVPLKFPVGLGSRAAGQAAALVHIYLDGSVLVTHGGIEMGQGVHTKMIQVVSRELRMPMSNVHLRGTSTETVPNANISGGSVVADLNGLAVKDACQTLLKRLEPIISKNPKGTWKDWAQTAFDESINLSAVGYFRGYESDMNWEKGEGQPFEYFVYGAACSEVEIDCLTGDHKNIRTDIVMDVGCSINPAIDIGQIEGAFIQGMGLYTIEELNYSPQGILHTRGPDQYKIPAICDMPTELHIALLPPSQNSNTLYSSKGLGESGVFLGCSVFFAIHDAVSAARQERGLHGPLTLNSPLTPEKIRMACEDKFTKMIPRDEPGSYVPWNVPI

[1] = compared with idoxuridine; cited from earlier work

O=c1[nH]c(=O)n([C@H]2C[C@H](O)[C@@H](CO)O2)cc1O [Compound 2, 5-hydroxy-1-((2R,4S,5R)-4-hydroxy-5-(hydroxymethyl)tetrahydrofuran-2-yl)pyrimidine-2,4(1H,3H)-dione]
effect in GPR37-translocation assay (hit rating) (GPR37-tGFP): slight positive effect

C#Cc1cn([C@H]2C[C@H](O)[C@@H](CO)O2)c(=O)[nH]c1=O [Compound 4, 5-ethynyl-1-((2R,4S,5R)-4-hydroxy-5-(hydroxymethyl)-tetrahydrofuran-2-yl)pyrimidine-2,4(1H,3H)-dione]
effect in GPR37-translocation assay (hit rating) (GPR37-tGFP): slight positive effect

Nc1cccc(-c2cn([C@H]3C[C@H](O)[C@@H](CO)O3)c(=O)[nH]c2=O)c1 [Compound 17, 5-(3-aminophenyl)-1-((2R,4S,5R)-4-hydroxy-5-(hydroxy-methyl)tetrahydrofuran-2-yl)pyrimidine-2,4(1H,3H)-dione]
effect in GPR37-translocation assay (hit rating) (GPR37-tGFP): strong hit

CCCC(=O)Nc1ncnc2c1ncn2[C@@H]1O[C@@H]2COP(=O)(O)O[C@H]2[C@H]1OC(=O)CCC [dibutyryl-cAMP]
increase of GPR37-tGFP in the plasma membrane (GPR37-tGFP; without starvation, used as positive control): remarkable increase

O=c1ncc(I)cn1[C@H]1C[C@H](O)[C@@H](CO)O1 [ropidoxuridine, 1-((2R,4S,5R)-4-hydroxy-5-(hydroxymethyl)tetrahydrofuran-2-yl)-5-iodopyrimidin-2(1H)-one]
metabolic conversion to idoxuridine (hepatic aldehyde oxidase): efficiently converted to idoxuridine
stability in vivo [1]: more stable
toxicity in vivo [1]: less toxic
